System: Helix pomatia agglutinin (HPA)
Assay: Bio-layer interferometry
Type: binding
Conditions: SA and SSA sensors; monovalent reference and negative control

Compound: CC(=O)N[C@H]1C(O)O[C@H](CO)[C@H](O)[C@@H]1O (stereo partly shown) [GalNAc]
- BLI binding signal: no detectable signal
